Results taken from patent publication EP3878441B1, “ALOE EMODIN AND ESTER DERIVATIVES THEREOF FOR TREATING SSTR2 AND/OR SSTR5 OVEREXPRESSING CANCERS” (Pecere, Teresa, priority 2020, dated 2021).

Legend:
[1] = state of the art statement; cited from earlier work
Sstr5 gene = assay: Real-time PCR, sstr5 mRNA gene expression in IMR5 cells; assay type: cell-based, human; conditions: AE 50µM, SST14 10µM, 5,30,60,120 min (fig.1B)
Procedure: (§1) Real-time PCR analyses were carried out to quantify expression of the selected sstrs genes in IMR5, DMS114, and MRC5 cells. Total RNA was isolated using the Qiagen RNeasy Mini Kit in accordance with the manufacturer's instructions. cDNA synthesis were performed using GeneAmp® RNA PCR Core Kit (Roche, New Jersey, U.S.A.). The expression levels of sstrs mRNA were evaluated by qualitative RT-PCR using the specific primers.
(§2) Relative quantitative PCR (qPCR) was carried out in 25 µl final volume utilizing 3 µl of cDNA, 0.2 µM of each specific primers, using SYBRgreen reagents according to the manufacturer's instructions. PCR reactions comprised 40 cycles after an initial denaturation step (95°C, 10 min) according to the parameters: denaturation at 95°C, 15 sec and annealing/extension at 60°C, 1 min, in an ABI PRISM 7700 Sequence Detection system. To normalize the RNA amount of the extracted samples, real-time PCR analysis of the human GAPDH cDNA was carried out. Moreover, we optimized the method for relative quantification with sequence-specific DNA probes for sstr2 and sstr5 genes TaqMan reagents using kit TaqMan Gene Expression Assays according to the manufacturer's instructions (Applied Biosystem, Milan, Italy). The relative quantification of a target template in the samples was evaluated using the 2^-ΔΔCT method. All experiments were conducted in triplicate.

sstr2 gene [2] = assay: Real-time PCR, sstr2 mRNA gene expression in MRC5 cells; assay type: cell-based, human; conditions: AE 50µM, SST14 10µM, 5,30,60,120 min (fig.1B)
Procedure: as §1, §2

sstr2 gene [3] = assay: Real-time PCR, sstr2 mRNA gene expression in IMR5 cells; assay type: cell-based, human; conditions: SST14 10µM, 5,30,60,120 min (fig.1B)
Procedure: as §1, §2

Which plasma half-life [1] does the source give for “SST14: somatostatin peptide containing 14 amino acids; natural ligand of somatostatin receptors” here?
The plasma half-life was under 3 min.

What about the Sstr5 gene expression (Sstr5 gene) of the same substance?
The Sstr5 gene expression was “up-regulated”.

And the sstr2 gene expression (sstr2 gene [2])?
The sstr2 gene expression was “significantly upregulated”.

And the sstr2 gene expression (sstr2 gene [3])?
Its sstr2 gene expression is “up-regulated”.
